The values that follow are results of earlier work, collected in patent US20080044496A1, “ARTHRITIS PHYTO-NUTRACEUTICAL SYNERGISTIC COMPOSITION” (priority 2006, published 2008).

The test system of the data set is human rheumatoid arthritis synoviocytes.

Regarding `C[C@@H]1CC[C@@]2(OC1)O[C@H]1C[C@H]3[C@@H]4CC=C5C[C@@H](O)CC[C@]5(C)[C@H]4CC[C@]3(C)[C@H]1[C@@H]2C` [diosgenine], the apoptosis result is “induces apoptosis”.
